The values below come from ChEMBL document CHEMBL1133926, “Optimization of a screening lead for factor VIIa/TF” (Bioorg Med Chem Lett, 2001).

The target in experiment [1] is T1, Prothrombin (Homo sapiens, UniProt P00734). The experiment in a line: Binding affinity for Coagulation factor II relative to compound 1.
The target of experiment [2] is T2, Coagulation factor X (Homo sapiens, UniProt P00742). The experiment in a line: Binding affinity for Coagulation factor X with respect to compound 1.
T2 sequence (P00742 41-179 limits assumed): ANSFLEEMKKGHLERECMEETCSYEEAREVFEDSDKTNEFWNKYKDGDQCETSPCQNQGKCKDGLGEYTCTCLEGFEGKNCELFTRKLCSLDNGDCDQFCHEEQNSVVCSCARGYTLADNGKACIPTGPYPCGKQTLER
T2 sequence (P00742 235-488 limits assumed): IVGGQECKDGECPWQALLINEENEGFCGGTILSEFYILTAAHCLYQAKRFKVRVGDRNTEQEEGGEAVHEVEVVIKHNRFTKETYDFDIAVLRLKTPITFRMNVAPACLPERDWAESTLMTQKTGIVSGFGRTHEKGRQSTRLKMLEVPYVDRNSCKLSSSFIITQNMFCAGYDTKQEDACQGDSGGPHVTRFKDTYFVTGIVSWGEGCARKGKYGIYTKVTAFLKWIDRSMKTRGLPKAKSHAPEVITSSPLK
In experiment [3] the target is Coagulation factor VII/tissue factor (Homo sapiens, UniProt P08709). As to the kind of experiment: Binding affinity for factor VIIa/TF. In kind it is protein-complex assay.
Sequence of Coagulation factor VII/tissue factor (P13726 33-295 partner limits assumed, one chain of several): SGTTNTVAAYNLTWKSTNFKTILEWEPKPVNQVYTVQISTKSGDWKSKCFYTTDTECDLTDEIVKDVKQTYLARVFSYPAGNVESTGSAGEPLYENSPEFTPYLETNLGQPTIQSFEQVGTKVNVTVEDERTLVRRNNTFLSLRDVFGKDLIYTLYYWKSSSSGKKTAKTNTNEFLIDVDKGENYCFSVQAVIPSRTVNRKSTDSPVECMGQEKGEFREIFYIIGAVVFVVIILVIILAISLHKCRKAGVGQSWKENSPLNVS
Experiment [4] in a line: (§1) In vitro anticoagulant activity in human plasma to double the prothrombin time (2x PT). It is filed as functional.
The target of experiment [5] is T3, Plasminogen (Homo sapiens, UniProt P00747). The experiment in a line: Relative affinity for Plasmin compared to compound 1.
T3 sequence (P00747 97-580 limits assumed): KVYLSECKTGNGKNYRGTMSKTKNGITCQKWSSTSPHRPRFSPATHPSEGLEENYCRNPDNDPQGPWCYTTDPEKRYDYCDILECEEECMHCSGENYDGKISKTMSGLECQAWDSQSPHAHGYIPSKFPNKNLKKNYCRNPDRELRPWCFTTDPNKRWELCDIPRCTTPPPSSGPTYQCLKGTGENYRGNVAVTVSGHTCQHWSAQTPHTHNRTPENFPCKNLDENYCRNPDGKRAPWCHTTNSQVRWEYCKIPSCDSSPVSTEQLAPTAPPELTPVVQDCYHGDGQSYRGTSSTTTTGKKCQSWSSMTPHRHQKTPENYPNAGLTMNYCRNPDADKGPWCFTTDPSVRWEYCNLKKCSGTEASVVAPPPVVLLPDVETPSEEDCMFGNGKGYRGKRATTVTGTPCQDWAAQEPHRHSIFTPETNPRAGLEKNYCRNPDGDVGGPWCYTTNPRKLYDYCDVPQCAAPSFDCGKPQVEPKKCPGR
T3 sequence (P00747 581-810 limits assumed): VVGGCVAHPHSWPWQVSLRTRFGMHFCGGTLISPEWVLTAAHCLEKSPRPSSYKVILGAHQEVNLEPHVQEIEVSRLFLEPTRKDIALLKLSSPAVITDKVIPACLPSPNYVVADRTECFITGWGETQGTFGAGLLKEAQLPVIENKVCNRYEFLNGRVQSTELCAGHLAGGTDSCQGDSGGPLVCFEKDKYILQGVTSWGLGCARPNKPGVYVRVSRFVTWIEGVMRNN
The target in experiment [6] is T4, Urokinase-type plasminogen activator (Homo sapiens, UniProt P00749). The experiment in a line: Relative binding affinity for urokinase-type plasminogen activator.
For experiment [7], the target named is T5, Serine protease 1 (Homo sapiens, UniProt P07477). As to the kind of experiment: Relative binding affinity towards Trypsin.
T5 sequence (P07477 whole entry): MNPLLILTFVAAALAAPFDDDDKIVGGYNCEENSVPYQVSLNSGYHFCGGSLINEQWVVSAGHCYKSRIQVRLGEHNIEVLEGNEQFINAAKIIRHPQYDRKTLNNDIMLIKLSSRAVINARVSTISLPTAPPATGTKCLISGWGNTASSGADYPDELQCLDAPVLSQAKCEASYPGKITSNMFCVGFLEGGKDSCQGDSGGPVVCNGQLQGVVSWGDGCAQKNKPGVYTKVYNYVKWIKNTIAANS
A further experiment has as its target T6, Coagulation factor VII (Homo sapiens, UniProt P08709).
T6 sequence (P08709 whole entry): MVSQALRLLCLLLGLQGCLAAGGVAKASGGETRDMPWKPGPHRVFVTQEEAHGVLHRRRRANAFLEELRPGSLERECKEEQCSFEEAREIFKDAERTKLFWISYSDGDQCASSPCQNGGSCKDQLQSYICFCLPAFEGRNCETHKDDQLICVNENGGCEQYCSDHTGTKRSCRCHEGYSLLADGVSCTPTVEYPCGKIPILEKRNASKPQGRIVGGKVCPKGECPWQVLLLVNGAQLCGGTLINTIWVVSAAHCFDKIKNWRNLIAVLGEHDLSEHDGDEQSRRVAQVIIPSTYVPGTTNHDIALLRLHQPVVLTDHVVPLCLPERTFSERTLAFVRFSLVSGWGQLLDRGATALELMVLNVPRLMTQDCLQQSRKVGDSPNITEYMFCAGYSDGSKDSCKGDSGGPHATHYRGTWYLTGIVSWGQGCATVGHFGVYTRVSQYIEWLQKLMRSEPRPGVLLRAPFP
The experiment in a line: Binding affinity towards factor VIIa/TF was determined.

Experiment [8] concerns the target T1, Prothrombin. As to the kind of experiment: Binding affinity towards Coagulation factor II.
The target in experiment [9] is T2, Coagulation factor X. The experiment in a line: Binding affinity towards Coagulation factor X.
For experiment [10], the target named is T3, Plasminogen. As to the kind of experiment: Binding affinity towards Plasmin.
Experiment [11] concerns the target T4, Urokinase-type plasminogen activator. As to the kind of experiment: Binding affinity towards urokinase-type plasminogen activator (microPa).
Experiment [12] deals with T5, Serine protease 1. As to the kind of experiment: Binding affinity towards Trypsin.
Experiment [13] is filed under the species Homo sapiens. As to the kind of experiment: In vitro anticoagulant activity in human plasma to double the prothrombin time (2xP T); Not active. In kind it is functional, cell-free.
The species named for experiment [14] is Homo sapiens. The description is as §1. It is filed as functional.
Experiment [15] deals with T1, Prothrombin. The experiment in a line: Binding affinity towards Thrombin with respect to compound 1.
The target in experiment [16] is T2, Coagulation factor X. The experiment in a line: Binding affinity towards coagulation factor X with respect to compound 1.

By Ki is commonly meant the equilibrium dissociation constant of an inhibitor or competing ligand from its target.

Active and inactive are the calls of the source. No cut-off for these calls is given here.

As to `N=C(N)c1ccc2[nH]c(-c3cc(CCC(=O)O)cc(-c4cccc([N+](=O)[O-])c4)c3O)cc2c1`, the Selectivity on Prothrombin [1] was 59; on Coagulation factor X [2], 2; on Plasminogen [5] it was 6; in experiment [6], 6; on Serine protease 1 [7], 37. Moreover, in experiment [3], the Ki turned out to be 27 nM. The “2x PT” value in experiment [4] came out at 2.2 µM.

Take `N=C(N)c1ccc2[nH]c(-c3cc(CC(=O)O)cc(-c4ccccc4)c3O)cc2c1`: the Selectivity on Prothrombin [1] was determined as 49; at Coagulation factor X [2], 4; at Plasminogen [5], 6; in [6], 1; on Serine protease 1 [7], 1. In experiment [3], this molecule registered a Ki of 41 nM.

Turning to `N=C(N)c1ccc2[nH]c(-c3cc(CC(=O)O)cc(-c4cccc(Cl)c4)c3O)cc2c1`, the Selectivity at Prothrombin [1] was 112; at Coagulation factor X [2], 5; on Plasminogen [5], 17; in experiment [6] it was 4; on Serine protease 1 [7], 3. In experiment [3], this molecule showed a Ki of 33 nM.

Consider `N=C(N)c1ccc2[nH]c(-c3cc(-c4nnn[nH]4)cc(-c4cccc([N+](=O)[O-])c4)c3O)cc2c1`, for which the affinity on Coagulation factor VII, expressed as Ki, was 50 nM.

Turning to `N=C(N)c1ccc2nc(-c3cc(Cl)cc(-c4cccc(N)c4)c3O)[nH]c2c1`, the Ki at Prothrombin [8] turned out to be 4.2 nM; at Coagulation factor X [9] it was 0.5 nM; in experiment [3], 78 nM; at Plasminogen [10], 3200 nM; in [11], 0.46 nM; at Serine protease 1 [12] it was 4700 nM.

As for `N=C(N)c1ccc2[nH]c(-c3cc(CC(=O)O)cc(-c4cccc(N)c4)c3O)cc2c1`, the Selectivity on Prothrombin [1] was determined as 550; on Coagulation factor X [2], 26; at Plasminogen [5] it was 27; in [6], 6; on Serine protease 1 [7], 83. The molecule further displayed a Ki in experiment [3] of 12 nM.

On to `N=C(N)c1ccc2[nH]c(-c3cc(CCOP(=O)(O)O)cc(-c4cccc([N+](=O)[O-])c4)c3O)cc2c1`, for which the Selectivity at Prothrombin [1] was determined as 870; at Coagulation factor X [2], 5; on Plasminogen [5], 33; in experiment [6], 21; on Serine protease 1 [7], 63. The molecule further gave a Ki in experiment [3] of 3 nM. Also, the “2x PT” value in the experiment filed under Homo sapiens [13] was “inactive”.

For `N=C(N)c1ccc2[nH]c(-c3cc(C(=O)O)cc(-c4cccc([N+](=O)[O-])c4)c3O)cc2c1`, the Selectivity on Prothrombin [1] was determined as 420; on Coagulation factor X [2], 42; on Plasminogen [5] it was 75; in experiment [6], 44; on Serine protease 1 [7], 70. This molecule also had a Ki in experiment [3] of 5 nM. The “2x PT” value in experiment [4] worked out at 4.1 µM.

`N=C(N)c1ccc2[nH]c(-c3cc(-c4nn[nH]n4)cc(-c4cccc([N+](=O)[O-])c4)c3O)cc2c1`: the “2x PT” value in the experiment listed under Homo sapiens [14] was found to be 16 µM. Besides, the Selectivity on Plasminogen [5] was found to be 20; at Prothrombin [15] it was 140; in experiment [6] it was 15; on Serine protease 1 [7], 40; on Coagulation factor X [16], 0.5.

For the molecule `N=C(N)c1ccc2[nH]c(-c3cc(CC(=O)O)cc(-c4cccc(C(=O)O)c4)c3O)cc2c1`, the Selectivity at Prothrombin [1] turned out to be 375; on Coagulation factor X [2], 0.5; on Plasminogen [5] it was 5; in [6], 6; at Serine protease 1 [7], 1. In experiment [3], this molecule gave a Ki of 320 nM.

Consider `N=C(N)c1ccc2[nH]c(-c3cc(CC(N)C(=O)O)cc(-c4cccc([N+](=O)[O-])c4)c3O)cc2c1` (stereo not given), for which the Ki on Coagulation factor VII turned out to be 50 nM. In addition, in the experiment filed under Homo sapiens [14], the “2x PT” value is 0.73 µM. For the same molecule, the Selectivity on Plasminogen [5] is 3; at Prothrombin [15], 40; in experiment [6] it was 1; on Serine protease 1 [7], 5; at Coagulation factor X [16], 0.5.

As to `N=C(N)c1ccc2[nH]c(-c3cc(CC(=O)O)cc(-c4cccc(-c5nnn[nH]5)c4)c3O)cc2c1`, the Ki in experiment [3] worked out at 480 nM.

Consider `N=C(N)c1ccc2[nH]c(-c3cc(CC(=O)O)cc(-c4cccc(OP(=O)(O)O)c4)c3O)cc2c1`, for which the Selectivity worked out at 87 on Prothrombin [1], 1 at Coagulation factor X [2], 4 at Plasminogen [5] and 4 in [6]. The molecule also showed a Ki in experiment [3] of 950 nM. Moreover, the Selectivity result on Serine protease 1 [7] is “inactive”.

As for `N=C(N)c1cccc(-c2cc(CC(=O)O)cc(-c3cc4cc(C(=N)N)ccc4[nH]3)c2O)c1`, the Selectivity came out at 140 at Prothrombin [1]; 4 at Coagulation factor X [2]; 3 on Plasminogen [5]; 0.6 in experiment [6]; 2 at Serine protease 1 [7]. In addition, affinity in [3] was put at a Ki of 430 nM.

On to `N=C(N)c1ccc2[nH]c(-c3cc(CC(=O)O)cc(-c4cccc(-c5nn[nH]n5)c4)c3O)cc2c1`, for which the Selectivity at Prothrombin [1] came to 100; on Coagulation factor X [2], 0.5; on Plasminogen [5] it was 2; in experiment [6] it was 2; on Serine protease 1 [7] it was 3.

Take `N=C(N)c1ccc2[nH]c(-c3cc(CC(=O)O)cc(-c4cccc([N+](=O)[O-])c4)c3O)cc2c1`: the Selectivity at Prothrombin [1] is 960; at Coagulation factor X [2] it was 20; on Plasminogen [5], 90; in experiment [6], 64; on Serine protease 1 [7], 160. The same molecule yielded a Ki in [3] of 3 nM. In experiment [4], the “2x PT” value came out at 1.7 µM.
